Some results are limits rather than exact numbers.

The results in this text go back to patent US10301280B2 (Plexxikon Inc., priority 2012, dated 2019).

The test system of assay [1] is BaF3-FL KIT D816V or BaF3-FL KIT V560G/D816V cell line. Nature of the assay: Cell-based assays of c-Kit mutant kinase activity (cell growth, ATPlite). The note with it: at least one of the c-kit cell assays of Example 26. The method in brief: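 BaF3 cells dependent on full-length human KIT (D816V or V560G/D816V) seeded at 1×10^4 cells/well in RPMI with 10% FBS. Eight-point 1:3 dilutions from 10 μM top final (0.2% DMSO), 3 days at 37° C., 5% CO2. ATPlite luminescence gave IC50.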
On the technique in general: Cellular ATP, detected with luciferase, serves as a proxy for viable cell number.

Assay [2] concerns the target c-kit kinase (Homo sapiens (Human), UniProt P10721). Nature of the assay: c-Kit biochemical assay (AlphaScreen). To be noted: c-kit biochemical inhibitory activity. The procedure: Assays for biochemical cell-based activity of c-kit kinase are known in the art, for example, as described in U.S. Pat. Nos. 7,498,342 and 7,846,941, the disclosures of which are hereby incorporated by reference as it relates to such assays. The c-kit (or kinase domain thereof) is an active kinase in AlphaScreen. IC50 values are determined with respect to inhibition of c-Kit kinase activity, where inhibition of phosphorylation of a peptide substrate is measured as a function of compound concentration. Compounds to be tested were dissolved in DMSO to a concentration of 20 mM. These were diluted 30 μl into 120 μl of DMSO (4 mM) and 1 μl was added to an assay plate. These were then serially diluted 1:3 (50 μl to 100 μl DMSO) for a total of 8 points. Plates were prepared such that each kinase reaction is 20 μl in 1× kinase buffer (50 mM HEPES, pH 7.2, 5 mM MgCl2, 5 mM MnCl2, 0.01% NP-40, 0.2% BSA), 5% DMSO and 10 µM ATP. Substrate was 100 nM biotin-(E4Y)3 (Open Source Biotech, Inc.). C-kit kinase was at 0.1 ng per sample. After incubation of the kinase reaction for 1 hour at room temperature, 5 μl of donor beads (Streptavidin coated beads (Perkin Elmer Life Science) final concentration 1 μg/ml) in stop buffer (50 mM EDTA in 1× kinase buffer) was added, the sample was mixed and incubated for 20 minutes at room temperature before adding 5 μl of acceptor beads (PY20 coated beads (Perkin Elmer Life Science) final concentration 1 μg/ml) in stop buffer. The samples were incubated for 60 minutes at room temperature and the signal per well was read on AlphaQuest reader. Phosphorylated substrate results in binding of the PY20 antibody and association of the donor and acceptor beads such that signal correlates with kinase activity. The signal vs. compound concentration was used to determine the IC50.
Compounds were also tested using a similar assay with a 10-fold higher ATP concentration. For these samples, compounds to be tested were dissolved in DMSO to a concentration of 20 mM. These were diluted 30 μl into 120 μl of DMSO (4 mM) and 1 μl was added to an assay plate. These were then serially diluted 1:3 (50 μl to 100 μl DMSO) for a total of 8 points. Plates were prepared such that each kinase reaction is 20 μl in 1× kinase buffer (25 mM HEPES, pH 7.5, 2 mM MgCl2, 2 mM MnCl2, 0.01% Tween-20, 1 mM DTT, and 0.001% BSA), 5% DMSO and 100 µM ATP. Substrate was 30 nM biotin-(E4Y)10 (Upstate Biotech, Cat#12-440). C-kit kinase was at 1 ng per sample. After incubation of the kinase reaction for 1 hour at room temperature, 5 μl of donor beads (Streptavidin coated beads (Perkin Elmer Life Science) final concentration 10 μg/ml) in stop buffer (25 mM HEPES pH 7.5, 100 mM EDTA, 0.3% BSA) was added, the sample was mixed and incubated for 20 minutes at room temperature before adding 5 μl of acceptor beads (PY20 coated beads (Perkin Elmer Life Science) final concentration 10 μg/ml) in stop buffer. The samples were incubated for 60 minutes at room temperature and the signal per well was read on AlphaQuest or Envision reader (Perkin Elmer Life Science). Phosphorylated substrate results in binding of the PY20 antibody and association of the donor and acceptor beads such that signal correlates with kinase activity. The signal vs. compound concentration was used to determine the IC50.
The c-kit enzyme used in the above assay was either obtained from Cell Signaling Technology (Cat. #7754) or was prepared as follows: A plasmid encoding kit (DNA and encoded protein sequences shown below) was engineered using common polymerase chain reaction (PCR) methods. Complementary DNA cloned from various human tissues were purchased from Invitrogen, and these were used as substrates in the PCR reactions. Specific custom synthetic oligonucleotide primers were designed to initiate the PCR product, and also to provide the appropriate restriction enzyme cleavage sites for ligation with the plasmids. […]

The target in assay [3] is c-kit mutant D816V (Homo sapiens (Human), UniProt P10721, D816V/DEL694-753). In words: c-Kit mutant D816V biochemical assay (AlphaScreen). The note with it: c-kit D816V biochemical inhibitory activity. The procedure:
The c-kit mutant D816V (or kinase domain thereof) is an active kinase in AlphaScreen. IC50 values are determined with respect to inhibition of c-Kit mutant D816V kinase activity, where inhibition of phosphorylation of a peptide substrate is measured as a function of compound concentration. Compounds to be tested were dissolved in DMSO to a concentration of 20 mM. These were diluted 30 μl into 120 μl of DMSO (4 mM) and 1 μl was added to an assay plate. These were then serially diluted 1:3 (50 μl to 100 μl DMSO) for a total of 8 points. Plates were prepared such that each kinase reaction is 20 μl in 1× kinase buffer (25 mM HEPES, pH 7.2, 8 mM MgCl2, 2 mM MnCl2, 50 mM NaCl, 0.01% Brij, 1 mM DTT, 0.01% BSA), 5% DMSO and 10 μM ATP. Substrate was 30 nM biotin-(E4Y)10 (EMD Millipore, Cat#12-440). C-kit mutant D816V kinase was at 0.75 ng per sample. After incubation of the kinase reaction for 30 minutes at room temperature, 5 μl of donor beads (Streptavidin coated beads (Perkin Elmer Life Science) final concentration 7.5 μg/ml) in stop buffer (25 mM Hepes pH 7.5, 100 mM EDTA, 0.01% BSA) was added, the sample was mixed and incubated for 20 minutes at room temperature before adding 5 μl of acceptor beads (PY20 coated beads (Perkin Elmer Life Science) final concentration 7.5 ug/ml) in stop buffer. The samples were incubated for 60 minutes at room temperature and the signal per well was read on EnVision reader. Phosphorylated substrate results in binding of the PY20 antibody and association of the donor and acceptor beads such that signal correlates with kinase activity. The signal vs. compound concentration was used to determine the IC50.
Recombinant c-kit mutant D816V (residues 551-934, kinase insertion domain residues 694-753 deleted) with a 6x-histidine N-terminal tag was expressed in E. coli Arctic Express (DE3) RIL (Stratagene). Cells were grown in Terrific Broth (TB) media to an OD600 of 0.6 at 37° C. at which temperature was reduced to 10° C., protein was induced with 1.0 mM IPTG for 18 hours and harvested by centrifugation at 8000×g for 20 minutes. Cells were re-suspended in 0.1M KPO4 pH 8.0, 250 mM NaCl, 10% Glycerol, 0.75% NP-40, 25 mM Imidazole, 5 mM BME with 0.2 mg/ml Lysosyme, 2.0 mM PMSF, 25 μg/ml DNAse I, incubated in ice for 30 minutes and lyzed with a cell disruptor (MicroFluidics). The lysate was clarified by centrifugation at 20,000×g for 2 hours. The protein was captured with Talon resin (Clontech). Contaminating proteins were washed off with 25 mM Tris-HCl pH 8.3, 250 mM NaCl, 15% Glycerol, 1% Triton X-100, and protein eluted using 100 mM EDTA. The protein was further purified using Gel Filtration column 26/600 Superdex 200 (GE) in 50 mM Tris-HCl, pH 8.0, 250 mM NaCl, 15% Glycerol, 5 mM BME. The protein was aliquoted and flash-frozen in liquid Nitrogen.

c-kit kinase, sequence (P10721 26-976): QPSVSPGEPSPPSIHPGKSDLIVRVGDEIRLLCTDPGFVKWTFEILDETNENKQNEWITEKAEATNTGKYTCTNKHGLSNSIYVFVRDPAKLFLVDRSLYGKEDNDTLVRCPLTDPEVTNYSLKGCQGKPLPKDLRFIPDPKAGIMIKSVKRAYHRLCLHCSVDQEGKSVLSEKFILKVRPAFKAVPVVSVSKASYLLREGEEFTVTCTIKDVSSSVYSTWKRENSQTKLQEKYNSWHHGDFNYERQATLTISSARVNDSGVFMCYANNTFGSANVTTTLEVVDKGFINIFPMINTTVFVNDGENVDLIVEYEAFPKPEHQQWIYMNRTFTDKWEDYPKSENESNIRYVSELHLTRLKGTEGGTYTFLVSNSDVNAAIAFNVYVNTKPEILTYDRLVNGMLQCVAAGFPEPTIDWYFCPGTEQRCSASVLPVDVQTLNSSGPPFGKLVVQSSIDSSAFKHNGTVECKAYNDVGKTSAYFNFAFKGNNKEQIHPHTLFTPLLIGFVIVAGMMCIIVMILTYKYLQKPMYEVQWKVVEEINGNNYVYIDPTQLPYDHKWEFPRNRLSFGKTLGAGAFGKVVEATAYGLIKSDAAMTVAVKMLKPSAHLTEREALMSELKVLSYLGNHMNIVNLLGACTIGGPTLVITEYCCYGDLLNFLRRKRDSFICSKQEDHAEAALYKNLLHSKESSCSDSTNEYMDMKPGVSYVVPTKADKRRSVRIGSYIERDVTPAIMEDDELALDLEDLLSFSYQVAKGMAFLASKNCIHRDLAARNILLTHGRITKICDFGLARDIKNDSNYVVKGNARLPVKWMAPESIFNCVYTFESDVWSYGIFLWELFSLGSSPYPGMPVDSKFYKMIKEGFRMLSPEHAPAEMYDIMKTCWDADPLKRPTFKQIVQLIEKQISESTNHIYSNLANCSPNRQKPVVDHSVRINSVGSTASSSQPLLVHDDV
c-kit mutant D816V, sequence (P10721 other isoform, or with tags, fused parts or gaps D816V/del 694-753): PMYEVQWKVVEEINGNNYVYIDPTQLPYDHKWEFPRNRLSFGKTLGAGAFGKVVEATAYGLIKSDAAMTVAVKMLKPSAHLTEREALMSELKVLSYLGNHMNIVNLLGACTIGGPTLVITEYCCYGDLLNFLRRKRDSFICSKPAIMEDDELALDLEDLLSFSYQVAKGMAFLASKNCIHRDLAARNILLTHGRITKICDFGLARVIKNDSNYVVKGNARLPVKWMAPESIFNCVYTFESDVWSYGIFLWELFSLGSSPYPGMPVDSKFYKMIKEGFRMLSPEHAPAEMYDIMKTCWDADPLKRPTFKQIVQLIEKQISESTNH

As a reminder, the IC50 is the concentration that inhibits the measured activity by half. Higher therefore signals weaker potency. Take `NC(=O)c1cccc(C(=O)Nc2cnc3[nH]c(-c4ccc(F)cc4)cc3c2)c1` [P-2020, N3-[2-(4-fluorophenyl)-1H-pyrrolo[2,3-b]pyridin-5-yl]benzene-1,3-dicarboxamide]: the half-inhibitory concentration (IC50) is less than 10 µM in assay [1] and 1 to 10 µM in assay [2].

Consider `O=C(Nc1cnc2[nH]c(-c3ccccc3)cc2c1)c1n[nH]c2ccc(F)cc12` [P-2010, 5-fluoro-N-(2-phenyl-1H-pyrrolo[2,3-b]pyridin-5-yl)-1H-indazole-3-carboxamide], for which the IC50 in assay [3] and in assay [2] was 10 to 200 µM each time.

For the molecule `Cc1n[nH]c(C(=O)Nc2cnc3[nH]c(-c4ccc(F)c(C)c4C)cc3c2)c1C` [P-2279, N-[2-(4-fluoro-2,3-dimethyl-phenyl)-1H-pyrrolo[2,3-b]pyridin-5-yl]-3,4-dimethyl-1H-pyrazole-5-carboxamide], the results for the 50% inhibitory concentration (IC50) in assay [1] and in assay [2] were less than 10 µM and 10 to 200 µM, respectively.

In the case of `Cc1cc2cc(NC(=O)c3cccc4n[nH]cc34)cnc2[nH]1` [P-2301, N-(2-methyl-1H-pyrrolo[2,3-b]pyridin-5-yl)-2H-indazole-4-carboxamide], the half-maximal inhibitory concentration (IC50) in assay [1] was less than 10 µM; in assay [2], 10 to 200 µM.

As for `O=S(=O)(Nc1cnc2[nH]c(-c3ccccc3)cc2c1)c1cn[nH]c1` [P-2018], the IC50 in assay [3] and in assay [2] was 10 to 200 µM in each case.
